Reference: PMC8968952, “Modulation of ERCC1-XPF Heterodimerization Inhibition via Structural Modification of Small Molecule Inhibitor Side-Chains” (Frontiers in Oncology, 2022)

Legend:
[1] = molecular target: T1, ERCC1-XPF heterodimer in A549 cells (Homo sapiens, UniProt Q92889); parameters: method as in PMID 33399940; conditions: cited from earlier work; for PLA: inhibition of the interaction between ERCC1 and XPF (in words): A549 cells treated with 20 μM cisplatin and 1 μM inhibitor
T1 construct: endogenous in cells; host or cells: A549
T1 sequence (Q92889 1-916): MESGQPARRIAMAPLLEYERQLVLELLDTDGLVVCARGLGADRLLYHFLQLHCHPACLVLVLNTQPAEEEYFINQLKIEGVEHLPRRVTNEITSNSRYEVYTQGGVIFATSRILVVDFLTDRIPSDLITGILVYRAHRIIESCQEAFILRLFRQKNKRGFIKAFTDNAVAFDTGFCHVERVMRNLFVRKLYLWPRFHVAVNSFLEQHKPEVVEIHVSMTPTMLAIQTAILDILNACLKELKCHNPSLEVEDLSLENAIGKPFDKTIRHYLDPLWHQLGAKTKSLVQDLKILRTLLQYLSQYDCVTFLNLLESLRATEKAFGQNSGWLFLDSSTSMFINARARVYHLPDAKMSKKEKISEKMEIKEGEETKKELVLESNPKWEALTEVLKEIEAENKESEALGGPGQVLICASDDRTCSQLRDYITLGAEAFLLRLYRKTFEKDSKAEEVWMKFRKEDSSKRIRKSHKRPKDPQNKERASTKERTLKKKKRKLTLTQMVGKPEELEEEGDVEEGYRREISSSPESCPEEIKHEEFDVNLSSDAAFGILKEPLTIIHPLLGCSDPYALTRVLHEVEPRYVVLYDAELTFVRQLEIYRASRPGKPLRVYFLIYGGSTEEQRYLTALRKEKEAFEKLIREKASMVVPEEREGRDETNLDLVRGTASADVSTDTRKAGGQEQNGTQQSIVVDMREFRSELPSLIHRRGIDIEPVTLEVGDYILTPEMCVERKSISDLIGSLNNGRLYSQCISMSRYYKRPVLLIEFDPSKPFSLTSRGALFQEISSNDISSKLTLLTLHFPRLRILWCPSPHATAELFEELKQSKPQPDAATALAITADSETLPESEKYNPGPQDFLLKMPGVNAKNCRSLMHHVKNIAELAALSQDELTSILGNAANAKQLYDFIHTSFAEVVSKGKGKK

ERCC1-XPF = molecular target: T2, ERCC1-XPF (Homo sapiens, UniProt Q92889); assay: Microplate fluorescence incision assay (endonuclease activity); type: biochemical; conditions: 10 μM inhibitor, 10 min preincubation
T2 construct: the final purity of the full-length ERCC1-XPF heterodimer was determined to be ~35%; His6; made in house; host or cells: E. coli BL21(DE3)
T2 sequence (Q92889 1-916): T1 sequence (Q92889 1-916)
Source text: Recombinant human ERCC1–XPF wild-type protein (containing polyhistidine (His-6) tags) was expressed from a bicistronic plasmid (kindly provided by Dr. Richard Wood, University of Texas MD Anderson Cancer Center, Smithville, TX) in the E. coli BL21(DE3) strain, Following previously described procedures ([70], [78]) the proteins extracted from E. coli were eluted from a ProBond Nickel-Chelating Resin (Thermo Fisher Scientific) and then a Hi-trap heparin column (GE Healthcare). Fractions containing ERCC1–XPF were dialyzed, concentrated, and stored at −80°C in 10 mM HEPES, pH 7.4, 2.5 mM β-mercaptoethanol, 0.01% CHAPS, 0.25 mM EDTA, 50% glycerol, and 25 mM NaCl. Based on polyacrylamide gel separation and Coomassie Blue staining, the final purity of the full-length ERCC1-XPF heterodimer was determined to be ~35%.
We employed a previously described protocol ([60], [70], [78]) in which the incision of the stem–loop substrate [6-FAM-5′-[…](20T)[…]-3′-dabcyl] (100 nM in 50 mM Tris-HCl, pH 8, 20 mM NaCl, 0.5 mM DDT, and 0.75 mM MnCl2) mediated by ERCC1-XPF (25 ng) in a total volume of 20 μL at 25°C was monitored by fluorescence using a FLUOstar Optima fluorimeter (BMG Labtech) with Optima software and excitation and emission wavelengths of 485 and 520 nm, respectively, for 5.5 min. The final concentration of inhibitor in the reaction was 10 μM prepared from a 200 μM stock solution in DMSO. With a molecular weight of 151 KDa for the XPF-ERCC1 heterodimer, a concentration of 25 ng of protein in 20 µl reaction buffer and a purity of 35%, the molar concentration of the enzyme was estimated to be 2.9 nM. Data were plotted using Microsoft Excel 2016.
An in vitro fluorescence-based assay was used to assess the ability of the synthesized compounds to inhibit the endonuclease activity of ERCC1-XPF. This assay has been previously described ([60], [70], [78]) and makes use of a stem-loop DNA substrate with a 5’-FAM fluorescent dye, and a 3’-dabcyl quencher. When ERCC1-XPF can cleave the DNA substrate, a 5’-FAM containing molecule is liberated from the stem-loop (and the quencher) and the fluorescence of the solution increases. The increase of the fluorescence of the solution can be observed in Figure 3A , in the absence of any inhibitor. To determine the influence of the inhibitory compounds, the protein was preincubated for 10 minutes with 10 μM of each inhibitor prior to addition of the substrate.

HCT-116 cells [2] = assay: Cellular repair of cyclobutane pyrimidine dimers (cellular NER) after UVC; type: cell-based, human; conditions: 2 μM
Experimental: We followed the protocol of Mirzayans et al. ([79]) with minor modifications as previously described ([70]). Inhibitor compounds were dissolved in DMSO and applied to a final DMSO concentration of 0.2% in media and 0.2% DMSO was used as the vehicle control. Mouse anti-thymine dimer monoclonal antibody (cat. no. MC-062, Kamiya Biomedical Company, Seattle, WA) was used for the immunofluorescence following UVC irradiation of the cells and fluorescent microscopic evaluation and measurement of fluorescence intensity were performed using MetaXpress, version 6.2.1.704, software (Molecular Devices, Sunnyvale, California). Data were plotted using GraphPad Prism version 5.04 software.
Immunofluorescent detection of cyclobutane pyrimidine dimers (CPD) generated in the DNA of HCT-116 cells after exposure to UVC radiation was used to measure NER. Our observations that approximately 80% of CPD were removed 24 hours post irradiation in the absence of any inhibitors mirrors previous observations ([70], [79]).

HCT-116 cells [3] = assay: Clonogenic survival assay, cyclophosphamide treatment; type: cell-based, human
Experimental: […] The medium was then replaced with drug and inhibitor-free fresh medium. After incubation for another 9 days to allow for colony formation, the plates were stained with crystal violet, colonies were counted, and plating efficiency and surviving fraction were calculated. Data were plotted using GraphPad Prism version 5.04. software.

HCT-116 cells [4] = assay: Clonogenic survival assay, UV treatment; type: cell-based, human; conditions: 0.5 μM
Experimental: HCT-116 cells (100–800 cells depending on the UV dose) were plated in triplicate in 60-mm Petri dishes in DMEM/F12 medium. Following overnight attachment of the cells in a humidified atmosphere containing 5% CO2 at 37°C, the cells were treated with 0.5 μM compound 6 or 10 in DMSO (as described in section 2.7) for 4 h before the medium was removed, and the cells exposed to increasing doses (0–10 J/m^2) of UV-C radiation. The cells were then cultured for a further 24 h in the presence of inhibitor and then for an additional 9 days in the absence of inhibitor to allow for colony formation. Colonies were stained with crystal violet and counted using a Colcount instrument (Oxford Optronix, Abingdon UK) to facilitate determination of plating efficiency and surviving fraction. Data were plotted using GraphPad Prism version 5.04 software.

SMILES: COc1ccc2nc3cc(Cl)ccc3c(Nc3ccc(O)c(CN4CCN(C)CC4)c3)c2c1 [Compound 1]
- PLA: inhibition of the interaction between ERCC1 and XPF (in words) [1]: clear inhibition of the interaction between ERCC1 and XPF

SMILES: CN(C)CCN1CCN(Cc2cc(Nc3c4ccc(Cl)cc4nc4ccc(O)cc34)ccc2O)CC1 [Compound 5]
- PLA: inhibition of the interaction between ERCC1 and XPF (in words) [1]: clear inhibition of the interaction between ERCC1 and XPF
- PLA: disruption of ERCC1-XPF heterodimerization (in words) ([1]; A549 not treated with cisplatin, 1 μM inhibitor): significant disruption of ERCC1-XPF heterodimerization

SMILES: COc1ccc2nc3cc(Cl)ccc3c(Nc3ccc(O)c(CN4CCN(CCCN(C)C5Cc6ccccc6C5)CC4)c3)c2c1 [Compound 8]
- inhibition of ERCC1-XPF endonuclease activity (in words, vs control and 4) (ERCC1-XPF): some inhibition of ERCC1-XPF endonuclease activity

SMILES: COc1ccc2nc3cc(Cl)ccc3c(Nc3ccc(O)c(CN4CCN(CCNCc5ccccc5)CC4)c3)c2c1 [Compound 10]
- effect on CPD removal / cellular NER (in words) (HCT-116 cells [2]): no significant effect on CPD removal
- inhibition of ERCC1-XPF endonuclease activity (in words, vs control and 4) (ERCC1-XPF): some inhibition of ERCC1-XPF endonuclease activity
- sensitization to cyclophosphamide (in words) (HCT-116 cells [3]; 0.5 μM 6, 10 at 1.0 μM or 0.5 μM): no significant sensitization of HCT-116 cells to cyclophosphamide
- sensitization to UVC radiation (in words) (HCT-116 cells [4]): no sensitization of HCT-116 to UVC radiation

SMILES: COc1ccc2nc3cc(Cl)ccc3c(Nc3ccc(O)c(CN4CCN(CCNCc5cccs5)CC4)c3)c2c1 [Compound 11]
- inhibition of ERCC1-XPF endonuclease activity (in words, vs control and 4) (ERCC1-XPF): some inhibition of ERCC1-XPF endonuclease activity

SMILES: CNC(=O)C(C)(C)CN1CCN(Cc2cc(Nc3c4ccc(Cl)cc4nc4ccc(OC)cc34)ccc2O)CC1 [Compound 12]
- inhibition of ERCC1-XPF endonuclease activity (in words, vs control and 4) (ERCC1-XPF): some inhibition of ERCC1-XPF endonuclease activity

SMILES: COCCN1CCN(Cc2cc(Nc3c4ccc(Cl)cc4nc4ccc(OC)cc34)ccc2O)CC1 [Compound 15]
- inhibition of ERCC1-XPF endonuclease activity (in words, vs control and 4) (ERCC1-XPF): some inhibition of ERCC1-XPF endonuclease activity

SMILES: O=P1(N(CCCl)CCCl)NCCCO1 (stereo not drawn) [cyclophosphamide, reference compound]
- cell survival, cyclophosphamide alone (HCT-116 cells [3]; 50 μM cyclophosphamide, no inhibitor): 91.5%
